The source of these data is article PMC9449670, “Two types of peptides derived from the neurotoxin GsMTx4 inhibit a mechanosensitive potassium channel by modifying the mechanogate” (The Journal of Biological Chemistry, 2022).

Assay [1] has as its target T1, stretch-activated BK channel (SAKcaC, SAKca-WT) (Gallus gallus, UniProt Q8AYS8).
T1 construct: Native SAKcaCs were recorded from ventricular myocytes; endogenous in cells; host or cells: isolated chick ventricular myocytes
The assay is described as follows: Single-channel excised inside-out patch clamp of native SAKcaC from ventricular myocytes, peptide backfilled in the pipette. The assay is classed as cell-based, chick. The note with it: for slope factor K^−1 of Po–V relationship (Boltzmann fit): control (no peptide) 25.1 ±1.16; for slope factor K^−1 of Po–V relationship (Boltzmann fit) / V1/2 of Po–V relationship (Boltzmann fit) / channel open probability Po with 50 nM peptide / channel open probability Po with 100 nM peptide / channel open probability Po with 0 nM peptide (control of the dose series) / Hill cofactor of dose–response curve: ventricular myocytes; for V1/2 of Po–V relationship (Boltzmann fit): control (no peptide) −91.5 ± 1.36 mV, n = 6 to 9; for channel open probability Po with 50 nM peptide / channel open probability Po with 100 nM peptide: 25 min following backfilling; for channel open probability Po with 50 nM peptide / channel open probability Po with 100 nM peptide / channel open probability Po with 0 nM peptide (control of the dose series): [Ca2+]i 1 mM, single sample patch. How it is done:
Native SAKcaCs were recorded from ventricular myocytes, which were isolated from chick hearts as described previously ([12], [13], [37]).
(§1) Single-channel currents for SAKcaC were recorded under the standard excised inside–out patch configuration. Currents were amplified using an A&M amplifier (Model 2400) or an EPC10 patch-clamp amplifier (HEKA Elektronik). Data were filtered at 10 kHz. The standard pipette solution facing the extracellular surface of the patch contained (in millimolar): 145 potassium gluconate, 1 EGTA, 10 Hepes, and 5 glucose, pH 7.4 was adjusted with NaOH. The bath solution facing the cytoplasmic surface of the patch membrane was the same except the [Ca^2+]i concentration used was 1 mM ([13], [38]).
(§2) In brief, the normal pipette solution was first filled in the tips of the electrodes, and then the same solution containing the peptide was backfilled. […] All experiments were performed with standard inside–out patch configuration at room temperature (22–25 °C).
(§3) Single-channel conductances of SAKcaC and the STREX-del mutant channel were determined by the slope of current–voltage (I–V) curves, where I–V data could be well fitted with a linear function ([12], [54]). Amplitude histograms were measured in inside–out patches mostly with one to three channels. Histograms were fitted with a Gaussian function using pClampfit software (Molecular Devices Corp.). In the case when only one channel was contained in patches, channel open probability Po (%) was determined simply by driving the total open duration of the sum of the open and closed times in patches as described previously ([51], [55]). When multiple channels were presented in the patch, Po was determined using the area under each peak (aj) at each current level (j) in the histogram along with the number of channels (N):(1) Po=∑j=0n(j∗aj)/n×∑j=0Naj Where N is the channel number in each patch, which was defined from the maximum level observed at a relatively higher voltage of +80 mV under 1 mM [Ca^2+]i.
In general terms: In patch-clamp work, channel activity is measured electrically.

The subject of assay [2] is STREX-del mutant channel (SAKcaC with STREX-exon removed). Conditions: earlier work of the authors; cited from earlier work. The source says: We next examined whether the two types of peptides function on the mechano-insensitive mutant channel. We have previously identified a mechano-insensitive-mutant (STREX-del) channel, of which the mechanosensor domain (STREX-exon) in SAKcaC was removed ([37], [38]). […] To investigate whether the synthetic short peptides act similarly to GsMTx4, we performed the same experiments to examine the effects of the two types of sh ...

In assay [3] the target is T2, stretch-activated BK channel (SAKcaC) (Gallus gallus, UniProt Q8AYS8).
T2 construct: expressed in transfected cells; host or cells: CHO-K1, transient transfection of pcDNA 3.1 with Lipofectamine 2000; pEGFP co-expressed as a separate marker
The assay is described as follows: Single-channel excised inside-out patch clamp of SAKcaC expressed in CHO-K1 cells, peptide backfilled in the pipette (extracellular side). Conditions: Vm −80 mV, [Ca2+]i 1 mM. The assay is classed as cell-based, chick.
Excerpt: (§4) The SA BK (SAKca) channel (SAKcaC) gene was cloned from the complementary DNA (cDNA) library (GenBank accession number: AB072618) from chick embryonic hearts ([13]); this was further subcloned into mammalian expression vectors (pcDNA 3.1). SAKca STREX (stress axis–regulated exon) deletion mutation (STREX-Del) was verified by sequencing as published previously ([35], [51]). Cloned SAKcaC (SAKca-WT) or STREX-Del mutant cDNAs were transiently transfected in the CHO-K1 cells using the Lipofectamine 2000 Transfection Reagent (Thermo Fisher Scientific) according to the manufacturer’s protocol. To monitor the successfully transfected cells, pEGFP (Clontech Laboratories) was coexpressed with the SAKca-WT or STREX-Del channel cDNA (5:1, w/w). The transfected cells grown on the coverslip were used for patch-clamp recordings. No endogenous BK channel activity was detected in the untransfected CHO-K1 cells. Currents were normally recorded within 1 week after cDNA transfection ([13], [37], [38]).
as §1, §2
as §3, with “Histograms were fitted with a Gaussian function using pClampfit software (Molecular Devices Corp.).” left out

The subject of assay [4] is STREX-del mutant channel (SAKcaC with STREX-exon removed). The assay is described as follows: Single-channel inside-out patch clamp of mechano-insensitive STREX-del mutant channel expressed in CHO cells. It is filed as cell-based, chick.
Excerpt: as §4
Single-channel currents for SAKcaC were recorded under the standard excised inside–out patch configuration. […]
as §3, with “Histograms were fitted with a Gaussian function using pClampfit software (Molecular Devices Corp.).” left out

A further assay concerns BK (mSlo1) channel. Briefly: Macroscopic currents of regular BK (mSlo1) channel in excised inside-out patches from Xenopus laevis oocytes. Conditions: 10 μM peptide backfilled, 25 min, [Ca2+]i 100 μM, n = 4-6. It is filed as cell-based, mouse. How it is done:
Macroscopic currents for regular BK (mSlo1) channels were recorded from Xenopus laevis oocytes by using standard excised inside–out patches. mSlo1 cDNA was a gift from the laboratory of Dr Christopher Lingle (Washington University), of which the vector pXMX was designed to promote […] expression ([12], [36], [52]). pClamp (Molecular Devices) was used to drive stimulus protocols and digitize currents as described previously ([51], [53]). The standard pipette (extracellular) solution contains (in millimolar): 140 KMES (methanesulfonate), 20 KOH, 10 Hepes, 2 MgCl2, and pH 7.0. The internal solution contains (in millimolar) 140 KMES, 20 KOH, 10 Hepes, 5 EGTA, and pH 7.0. The free intracellular [Ca^2+]i solution was buffered as described previously ([36], [52]).
as §2

Bridges are numbered along the chain shown (N, C = ends). Where no end group is shown, it is not given here.

T2 sequence (Q8AYS8 1-1195 isoform Q8AYS8-3): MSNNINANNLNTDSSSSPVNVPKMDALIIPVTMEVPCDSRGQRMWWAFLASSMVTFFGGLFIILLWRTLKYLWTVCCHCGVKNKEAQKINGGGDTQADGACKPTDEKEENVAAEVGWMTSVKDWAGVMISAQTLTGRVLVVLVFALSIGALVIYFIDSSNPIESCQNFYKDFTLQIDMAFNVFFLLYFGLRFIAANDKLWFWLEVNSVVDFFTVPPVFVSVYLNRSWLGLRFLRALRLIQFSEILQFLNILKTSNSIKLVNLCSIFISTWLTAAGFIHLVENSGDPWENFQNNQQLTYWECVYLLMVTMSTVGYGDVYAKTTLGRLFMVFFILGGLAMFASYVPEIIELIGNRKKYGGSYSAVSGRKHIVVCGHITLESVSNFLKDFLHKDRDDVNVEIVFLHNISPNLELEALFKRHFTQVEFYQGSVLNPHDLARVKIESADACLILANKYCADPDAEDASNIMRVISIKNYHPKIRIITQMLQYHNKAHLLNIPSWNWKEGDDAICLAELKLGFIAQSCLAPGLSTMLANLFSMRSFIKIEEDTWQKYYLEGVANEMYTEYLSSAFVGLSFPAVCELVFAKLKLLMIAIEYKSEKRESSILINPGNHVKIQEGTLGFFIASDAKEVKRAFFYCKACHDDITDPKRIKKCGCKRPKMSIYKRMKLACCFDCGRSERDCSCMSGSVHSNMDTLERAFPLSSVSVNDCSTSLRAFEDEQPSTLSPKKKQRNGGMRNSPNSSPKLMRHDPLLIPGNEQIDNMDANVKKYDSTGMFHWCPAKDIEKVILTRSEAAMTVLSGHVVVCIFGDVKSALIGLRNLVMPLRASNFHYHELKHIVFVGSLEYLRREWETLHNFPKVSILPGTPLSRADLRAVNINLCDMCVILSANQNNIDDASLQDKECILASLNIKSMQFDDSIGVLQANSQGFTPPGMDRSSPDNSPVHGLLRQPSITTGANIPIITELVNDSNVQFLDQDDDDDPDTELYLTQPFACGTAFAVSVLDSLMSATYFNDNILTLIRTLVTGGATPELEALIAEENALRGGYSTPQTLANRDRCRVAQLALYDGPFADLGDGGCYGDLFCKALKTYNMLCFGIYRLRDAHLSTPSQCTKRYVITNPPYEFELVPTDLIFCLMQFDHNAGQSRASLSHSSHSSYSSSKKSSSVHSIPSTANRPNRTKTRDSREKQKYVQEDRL
T1 sequence (Q8AYS8 1-1195 isoform Q8AYS8-3): as above

For “GsMTx4 (GCLEFWWKCNPNDDKCCRPKLKCSKLFKLCNFSF; disulfide (positions not given here); ends not checked; UniProt Q7YT39 47-80, looked up) [reference compound]”, in assay [1] (50 nM peptide), the “slope factor K^−1 of Po–V relationship (Boltzmann fit)” value turned out to be 24.5 ± 1.63 and the “V1/2 of Po–V relationship (Boltzmann fit)” value is on record as −47.2 ± 0.97 mV. In addition, in assay [1] (Vm −50 mV), the “channel open probability Po with 50 nM peptide” value came out at 47.1%, the “channel open probability Po with 100 nM peptide” value was 13.8%, the “channel open probability Po with 0 nM peptide (control of the dose series)” value came to 73.6% and the “Hill cofactor of dose–response curve” value is given as 1.6 ± 0.47. The “effect on STREX-del channel, in words” value in assay [2] is on record as “without effect”.
“WKCNPNDDKC (disulfide 3-10 (inferred)) [Pept 02, 10-residue type II peptide derived from loop2 of GsMTx4]”: the “inhibitory effect on SAKcaC, in words” value in assay [3] (5 μM peptide backfilled) is recorded as “enhanced inhibition (%)”. Also, the “averaged diffusion/inhibitory rate (τ), single-exponential fit of Po time course” value in assay [3] (5 μM peptide, mean ± SEM, at least four experiments, SEM) was found to be 2.89 ± 0.16 min. Further, the “channel open probability Po at 16 min following backfilling” value in assay [3] (5 μM peptide, single sample patch) worked out at 3.6%. Moreover, the “channel open probability Po before peptide reaches the membrane (0 peptide, 2 min after backfilling)” value in assay [3] (baseline of the same patch, 5 μM peptide backfilled, 22–25 °C, single sample patch) came to 42.9%. In assay [1] (50 nM peptide, Vm +30 mV), the “inhibition of SAKcaC Po at +30 mV” value is roughly 10.3%. Further, the “inhibition of SAKcaC Po at −50 mV” value in assay [1] (50 nM peptide, Vm −50 mV) is given as roughly 71.3%. Moreover, in assay [1] (50 nM peptide), the “slope factor K^−1 of Po–V relationship (Boltzmann fit)” value is given as 22.9 ± 1.11 and the “V1/2 of Po–V relationship (Boltzmann fit)” value is on record as −23.7 ± 1.06 mV. Also, in assay [1] (10 μM peptide, Vm +30 mV), the “inhibition of SAKcaC at depolarized condition, in words” value is on record as “completely inhibited”. In assay [1] (Vm −50 mV), the “channel open probability Po with 50 nM peptide” value was found to be 22.1%, the “channel open probability Po with 100 nM peptide” value was found to be 6.8%, the “channel open probability Po with 0 nM peptide (control of the dose series)” value is 72.5% and the “Hill cofactor of dose–response curve” value is given as 1.8 ± 0.52. The “effect on STREX-del mutant channel, in words” value in assay [4] (10 μM peptide backfilled, −60 mV (Pept 02 also +30 mV), up to 25–30 min) was “not significantly altered”. The “V1/2 of Po–V relationship of STREX-del (Boltzmann fit)” value in assay [4] (10 μM peptide, Po 25 min following backfilling, control (no peptide) −9.2 ± 2.3 mV, n = 4 to 9) is on record as −5.7 ± 2.6 mV. Further, in assay [4] (10 μM peptide, control (no peptide) 23.3 ± 2.8), the “slope factor K^−1 of Po–V relationship of STREX-del” value was 22.5 ± 2.1. Moreover, the “effect on regular BK (mSlo1) channel, in words” value in the assay on BK (mSlo1) channel is on record as “failed to inhibit”.
